The values that follow come from patent publication US20220289794A1, “SYNTHETIC ANTIMICROBIAL PEPTIDES” (priority 2019, published 2022).

Series [1] concerns Escherichia coli (ATCC 25922).
The subject of series [2] is Methicillin-resistant Staphylococcus aureus MRSA (ATCC BAA-1556).
The subject of series [3] is Pseudomonas aeruginosa (ATCC 27883). The settings on record: P. aeruginosa ATCC 27883.
The subject of series [4] is K. pneumoniae strain ATCC BAA-2470 biofilm.
Protocol: Bacteria. The bacterial strains employed in these assays were obtained from the American Type Culture Collection (ATCC). Each strain was propagated as recommended by the ATCC and each strain was stored as a frozen glycerol stock at −80° C.
Bacterial Propagation. […] Following the incubation, the culture was diluted to an optical density 625 nm (OD625) of 0.1 in cation adjusted Mueller Hinton Broth (CAMHB), which is equivalent to 1×10^8 CFU/mL. The culture was further diluted to 1×10^6 CFU/mL which was used for the assay.
Determination of the Temporal Effects of SPL7013 Addition to Inhibit Biofilm Formation. Each strain of bacteria was adjusted to a concentration of 1×10^6 CFU/mL and added to a 96-well flat-bottomed plate in a volume of 100 mL. One-hundred microliters (100 mL) of each compound at 10 concentrations was added in triplicate wells. The cultures were incubated for 24 hours at 37° C. under the appropriate growth conditions for each organism. Following the incubation, the media was removed, and the formed biofilms were fixed for 1 hour at 60° C. Two-hundred microliters (200 mL) of 0.06% crystal violet was added to the wells for 5 to 10 minutes and the wells were then gently washed three times with deionized H2O to remove the crystal violet. Following crystal violet staining 200 mL of 70% ethanol was added to the wells.
The next series can be described thus: in vitro. The note with it: human, fresh human red blood cells (washed), pH 7.4.
The test system of series [5] is Enterococcus faecium ATCC 27270. The note with it: for MIC: ATCC 27270.
Series [6] relates to Staphylococcus aureus ATCC 29213.
The subject of series [7] is Escherichia coli (ATCC BAA-2452).
Series [8] relates to Acinetobacter baumannii (ATCC BAA-1605).
The test system of series [9] is Enterococcus faecalis ATCC 29212. The note with it: for MIC: ATCC 29212.
Series [10] concerns Klebsiella pneumoniae ATCC 13883.
Series [11] concerns Bacillus cereus (ATCC-13061).
Series [12] concerns Bacillus subtilis (ATCC-6633).
The subject of series [13] is Pseudomonas aeruginosa (ATCC BAA-1744).
For series [14], the system named is Enterococcus faecalis ATCC 51575. The settings on record: for MIC: ATCC 51575.
The test system of series [15] is Enterococcus faecium ATCC 700221. The settings on record: for MIC: ATCC 700221.
The test system of series [16] is Pseudomonas aeruginosa (ATCC 10145).
In series [17] the test system is Streptococcus pneumoniae ATCC 51938. The note with it: for MIC: ATCC 51938.
Series [18] has as its system Streptococcus pneumoniae ATCC 49619. The settings on record: for MIC: ATCC 49619.
For series [19], the system named is Pseudomonas aeruginosa (PSA, ATCC 27883). Description: Synergy checkerboard assay (FIC index). In kind it is cell-based. The note with it: Table 27; Pseudomonas aeruginosa (ATCC 27883); peptide alone.
Another series concerns MRSA (ATCC BAA-1556). The note with it: ATCC BAA-1556.
For series [20], the system named is P. aeruginosa (ATCC 10145). Put plainly: Broad-spectrum activity against Gram-Negative bacteria (MIC). It counts as cell-based. The settings on record: Table 16, Gram-negative panel.
The next series deals with B. cereus (ATCC-13061). Description: Broad-spectrum activity against Gram-Positive bacteria (MIC). In kind it is cell-based. Set-up: unit not given here.
Series [21] deals with Klebsiella pneumoniae (KPC, ATCC BAA-1705). The settings on record: ATCC BAA-1705.
The test system of series [22] is P. aeruginosa (ATCC BAA-1744). Put plainly: Broad-spectrum activity against Gram-Negative bacteria (MIC). In kind it is cell-based. The settings on record: Table 16, Gram-negative panel.
Another series has as its system B. subtilis (ATCC-6633). Put plainly: Broad-spectrum activity against Gram-Positive bacteria (MIC). It counts as cell-based. Set-up: unit not given here.
The next series relates to E. coli (ATCC BAA-2452). Put plainly: Broad-spectrum activity against Gram-Negative bacteria (MIC). The note with it: Table 16, Gram-negative panel. In kind it is cell-based.
For series [23], the system named is Escherichia coli (E. Coli, ATCC 25922). The settings on record: ATCC 25922.
Series [24] concerns Klebsiella pneumoniae (ATCC BAA-1705). The note with it: Table 16, Gram-negative panel.
The test system of series [25] is A. baumannii (ATCC BAA-1605). Put plainly: Broad-spectrum activity against Gram-Negative bacteria (MIC). It counts as cell-based. The settings on record: Table 16, Gram-negative panel.

≈ marks a conversion by molar mass, not a printed value. Where two headings read alike, the source gives them in different places. Positions of bridges follow the written chain, without caps; N, C: chain ends. Non-standard residues stand in square brackets, D forms with d. Residues, ends and D or L forms follow the SMILES beside them. d2Nal = N[C@H](Cc1ccc2ccccc2c1)C(=O)O Where only a bound is given, the exact number is not on record here.

One may read the HC50 as the concentration giving 50% haemolysis. In the case of `N=C(N)NCCC[C@@H]1NC(=O)[C@@H](CCCNC(=N)N)NC(=O)[C@H](CCCNC(=N)N)NC(=O)[C@@H](Cc2ccc3ccccc3c2)NC(=O)[C@@H](Cc2ccc3ccccc3c2)NC(=O)[C@H](Cc2c[nH]c3ccccc23)NC(=O)[C@@H](CCCNC(=N)N)NC1=O` [IFX-111, c[Arg-arg-Arg-arg-Trp-naI-naI]] (cyclo(R[dR]R[dR]W[d2Nal][d2Nal])), the “MIC E. coli ATCC 25922” value in series [1] (ATCC 25922) is 6.2 µg/mL (≈ 5.14 µM). Moreover, the “MIC MRSA ATCC BAA-1556” value in series [2] (ATCC BAA-1556) turned out to be 1.5 µg/mL (≈ 1.24 µM). The “MIC P. aeruginosa ATCC 27883” value in [3] was found to be 12.5 µg/mL (≈ 10.4 µM). Further, the “inhibition of biofilm formation” value in series [4] (ATCC BAA-2470) is listed as at most 23%. Further, the concentration for 50% haemolysis (HC50) at 0.5 h in the series “in vitro” was 205 µg/mL. The “MIC S. aureus ATCC 29213” value in the series with S. aureus ATCC 29213 (ATCC 29213) was found to be 1.5 µg/mL (≈ 1.24 µM).

Take `CN(C)c1cc(NC(=O)CNC(C)(C)C)c(O)c2c1C[C@H]1C[C@H]3[C@H](N(C)C)C(O)=C(C(N)=O)C(=O)[C@@]3(O)C(O)=C1C2=O` [Tigecycline, reference compound]: the “change of biofilm formation” value in [4] (K. pneumoniae, two of the lowest concentrations, 0.2 mg/mL and 0.1 mg/mL) is “increase in biofilm formation”.

What is called MIC is the smallest concentration in the dilution series that meets the test's criterion for growth inhibition. Take `N=C(N)NCCC[C@@H]1NC(=O)[C@H](CCCNC(=N)N)NC(=O)[C@H](CCCNC(=N)N)NC(=O)[C@@H]2CSSC[C@H](NC(=O)[C@H](CCCNC(=N)N)NC1=O)C(=O)N[C@@H](Cc1c[nH]c3ccccc13)C(=O)N[C@@H](Cc1c[nH]c3ccccc13)C(=O)N[C@@H](Cc1c[nH]c3ccccc13)C(=O)N[C@@H](Cc1c[nH]c3ccccc13)C(=O)N2` [[R3CW4CR] (IFX-330)] (cyclo(RRRCWWWWCR); disulfide 4-9): the minimum inhibitory concentration (MIC) against E. coli amounted to 32 µg/mL (≈ 20.3 µM); in series [5], 8 µg/mL (≈ 5.08 µM); in [6], 16 µg/mL (≈ 10.2 µM); in series [7] (ATCC BAA-2452) it was 32 µg/mL (≈ 20.3 µM); with MRSA, 8 µg/mL (≈ 5.08 µM); in [8] (ATCC BAA-1605), 32 µg/mL (≈ 20.3 µM). Also, the MIC in series [9] worked out at 32 µg/mL (≈ 20.3 µM); against PSA, 128 µg/mL (≈ 81.3 µM); in series [10] (ATCC 13883), 32 µg/mL (≈ 20.3 µM); in series [11], 16 µg/mL (≈ 10.2 µM); in series [12], 8 µg/mL (≈ 5.08 µM); in series [13] (ATCC BAA-1744), 32 µg/mL (≈ 20.3 µM). In addition, the MIC in series [14] worked out at 32 µg/mL (≈ 20.3 µM); in series [15], 8 µg/mL (≈ 5.08 µM); in series [16] (ATCC 10145), 64 µg/mL (≈ 40.7 µM); in the series with KPC it was 32 µg/mL (≈ 20.3 µM).

For the molecule `N=C(N)NCCC[C@@H]1NC(=O)[C@H](CCCNC(=N)N)NC(=O)[C@H](CCCNC(=N)N)NC(=O)[C@H](CCCCN)NC(=O)[C@H](Cc2c[nH]c3ccccc23)NC(=O)[C@H](Cc2c[nH]c3ccccc23)NC(=O)[C@H](Cc2c[nH]c3ccccc23)NC(=O)[C@H](Cc2c[nH]c3ccccc23)NC(=O)[C@H](CCCNC(=N)N)NC(=O)[C@H](CCCNC(=N)N)NC1=O` [[R5W4K] (IFX-315)] (cyclo(RRRRRWWWWK)), the minimum inhibitory concentration (MIC) is 16 µg/mL (≈ 9.67 µM) against E. coli; 8 µg/mL (≈ 4.84 µM) in series [5]; 8 µg/mL (≈ 4.84 µM) in [6]; 25 µg/mL (≈ 15.1 µM) in series [7] (ATCC BAA-2452); 2 µg/mL (≈ 1.21 µM) in [17]; 8 µg/mL (≈ 4.84 µM) against MRSA. Further, the minimum inhibitory concentration (MIC) in series [8] (ATCC BAA-1605) worked out at 32 µg/mL (≈ 19.3 µM); in series [9] it was 16 µg/mL (≈ 9.67 µM); in [18] it was 2 µg/mL (≈ 1.21 µM); against PSA, 16 µg/mL (≈ 9.67 µM); in series [10] (ATCC 13883), 8 µg/mL (≈ 4.84 µM); in [11], 16 µg/mL (≈ 9.67 µM). Moreover, the minimal inhibitory concentration (MIC) in [12] turned out to be 8 µg/mL (≈ 4.84 µM); in [13] (ATCC BAA-1744) it was 16 µg/mL (≈ 9.67 µM); in series [14], 32 µg/mL (≈ 19.3 µM); in series [15] it was 8 µg/mL (≈ 4.84 µM); in series [16] (ATCC 10145), 32 µg/mL (≈ 19.3 µM); in the series with KPC it was 32 µg/mL (≈ 19.3 µM).

Consider “c[Arg-Arg-arg-arg-naI-Trp-naI] [IFX-135]”, for which the IFX135 MIC in series [19] was 32 µg/mL; in the series on MRSA (ATCC BAA-1556), 2 µg/mL; in series [21] it was 16 µg/mL; in [23], 8 µg/mL. Moreover, the minimum inhibitory concentration (MIC) with E. coli (Table 36, E. coli ATCC 25922) amounted to 8 µg/mL; in series [5], 4 µg/mL; in [6], 2 µg/mL; in series [7] (Table 36, Escherichia coli (ATCC BAA-2452)) it was 16 µg/mL; in series [17], 16 µg/mL; in the series with MRSA, 2 µg/mL. For the same molecule, the MIC in [8] (Table 36, Acinetobacter baumannii (ATCC BAA-1605)) is 16 µg/mL; in [9], 8 µg/mL; in [18] it was 16 µg/mL; against PSA (Table 36, P. aeruginosa ATCC 27883), 32 µg/mL; in series [10] (Table 36, Klebsiella pneumonia (ATCC 13883)), 64 µg/mL; in [11], 8 µg/mL. Moreover, the minimal inhibitory concentration (MIC) amounted to 2 µg/mL in series [12]; 16 µg/mL in series [13] (Table 36, Pseudomonas aeruginosa (ATCC BAA-1744)); 16 µg/mL in series [14]; 4 µg/mL in series [15]; 32 µg/mL in series [16] (Table 36, Pseudomonas aeruginosa (ATCC 10145)); 16 µg/mL against KPC (Table 36, Klebsiella pneumoniae (ATCC BAA-1705)). For the same molecule, the “Broad-spectrum activity E. faecium (ATCC 27270)” value in [5] (E. faecium ATCC 27270) was 3.1. Moreover, the MIC P. aeruginosa (ATCC 10145) in [20] worked out at 25 µg/mL. In series [17] (S. pneumoniae ATCC 51938), the “Broad-spectrum activity S. pneumoniae (ATCC 51938)” value is given as 12.5. Further, the “MIC E. coli ATCC 25922” value in series [1] (E. coli ATCC 25922) stood at 8 µg/mL. Moreover, the “Broad-spectrum activity B. cereus (ATCC-13061)” value in the series on B. cereus (ATCC-13061) worked out at 6.2. The “MIC MRSA ATCC BAA-1556” value in series [2] (MRSA ATCC BAA-1556) was determined as 1.5 µg/mL. Besides, the MIC P. aeruginosa (ATCC BAA-1744) in series [22] came to 12.5 µg/mL. The “Broad-spectrum activity B. subtilis (ATCC-6633)” value with B. subtilis (ATCC-6633) is on record as 1.5. In addition, the “Broad-spectrum activity E. faecalis (ATCC 29212)” value in [9] (E. faecalis ATCC 29212) worked out at 6.2. For the same molecule, in [18] (S. pneumoniae ATCC 49619), the “Broad-spectrum activity S. pneumoniae (ATCC 49619)” value amounted to 12.5. The “MIC P. aeruginosa ATCC 27883” value in [3] was 32 µg/mL. In the series with E. coli (ATCC BAA-2452), the MIC E. coli (ATCC BAA-2452) is 12.5 µg/mL. The molecule further gave an MIC K. pneumonia (ATCC 13883) in series [10] (Table 16, Gram-negative panel) of 50 µg/mL. Further, the “Broad-spectrum activity E. faecalis (ATCC 51575)” value in series [14] (E. faecalis ATCC 51575) is 12.5. Further, the “Broad-spectrum activity E. faecium (ATCC 700221)” value in series [15] (E. faecium ATCC 700221) came out at 3.1. Also, the MIC K. pneumonia (ATCC BAA-1705) in [24] worked out at 12.5 µg/mL. Besides, the MIC A. baumannii (ATCC BAA-1605) in [25] was found to be 12.5 µg/mL. Besides, the “MIC S. aureus ATCC 29213” value in the series with S. aureus ATCC 29213 (S. aureus ATCC 29213) amounted to 1.5 µg/mL.
